The source of these data is EP0197829A1, “5H-pyrido[3',4':4,5]pyrrolo[3,2-c]pyridine derivatives, process for their preparation and their antitunour activity” (SANOFI, priority 1985, dated 1986).

Series [1] concerns lignée tumorale leucémie L 1210. Briefly: In vitro cytotoxicity on L 1210 leukemia cell culture. It counts as cell-based. The following applies: concentration inhibiting cell proliferation by 50 p. 100, after 48 h contact, read-out: ID 50 (the source's name). As to the method: 1) In vitro : (PAOLETTI et al., Chem. Biol. Interaction, 1979, 25, 45-58).
L'activité cytotoxique des composés de l'invention a été évaluée par des essais in vitro. Ces essais consistent à ajouter des concentrations croissantes du composé à tester à une culture cellulaire de la lignée tumorale leucémie L 1210 en phase exponentielle de croissance. Les cellules sont incubées à 37°C dans une étuve à C02 et comptées toutes les 24 heures. Le calcul de l'ID 50 (concentration du produit exprimée en micromole 1^-1 qui inhibe la prolifération cellulaire à 50 p. 100) est effectué après 48 heures de contact. Ainsi déterminées, les ID 50 des composés de l'invention sont rassemblées dans le tableau I ci-après : […]

The nature of the next series: in vivo. Further details: species or system souris. The following applies: mouse, ip, 100 mg/kg. As to the method: (§1) Ainsi, l'administration à des souris hybrides CDF1 saines, en une injection unique par la voie intrapéritonéale, de doses croissantes des composés à tester (5 mg, 10 mg, 20 mg, 40 mg/kg) a permis de constater que, à ces doses, les produits étaient parfaitement tolérés puisque le taux de survivants était de 100 p. 100.
(§2) Dans les mêmes conditions, administrés à des souris BDF1 saines, les taux de survivants étaient de 100 p. 100 jusqu'à 100 mg/kg pour les dérivés 1, 3 et 9 et jusqu'à 200 mg/kg pour les dérivés 2 et 8.

The next series deals with leucémie P 388. It counts as in vivo, souris hybrides CDF1. Particulars: for Survivants: at day J 40. An excerpt: (§3) L'activité antitumorale a été testée in vivo sur différentes tumeurs selon le protocole général suivant : Toutes les souris mâles ou femelles sont inoculées par voie intrapéritonéale au jour Jo avec une quantité déterminée de cellules tumorales viables, variable selon la tumeur.
(§4) Elles sont ensuite réparties en différents lots. Chaque lot correspondant aux animaux traités par le produit à tester à une dose déterminée est composé de lO souris. Dans ce cas, le produit à tester est dissous dans l'eau distillée et il est administré, pendant n jours (J1-Jn) variables selon le protocole choisi, par voie intrapéritonéale à raison de 0,1 ml par lO g de poids des souris traitées, les doses du produit administré étant précisées dans les tableaux ci-dessous.
(§5) Le lot "Contrôle négatif", correspondant aux animaux qui ne sont pas traités par un produit, comprend 2 √N animaux, N étant égal au nombre total de souris traitées par un produit.
(§6) Enfin, tous lés essais sont conduits parallèlement à l'étude d'un lot appelé "Contrôle positif" de 10 animaux qui est traité par une molécule active, variable selon le protocole choisi, dans les mêmes conditions que les lots traités par le produit à tester, afin de valider l'essai.
(§7) L'activité antitumorale est évaluée en considérant l'augmentation du temps de survie des animaux traités par rapport à celui des animaux du lot "Contrôle négatif" selon la formule : • Jour médian de survie des animaux traités à une T/C = dose donnée de produit x 100 • Jour médian de survie des animaux "Contrôle négatif"
(§8) Un composé est considéré comme étant actif lorsque la valeur du rapport T/C est égale ou supérieure à 125 % selon le protocole retenu. Il est toxique lorsque cette valeur est égale ou inférieure à 85 %. Le produit est également considéré comme toxique lorsque la variation pondérale, exprimée en grammes et calculée par la formule : Poids moyen du lot mesuré au jour 5 - poids moyen du même lot au jour 1, est égale ou inférieure à -4g . a) Test de la leucémie P 388 (GERAN et al., Cancer Chemother, 1972, 2, 07-57).
Les essais sont effectués avec des souris hybrides CDF1 inoculées par voie intrapéritonéale avec […] leucémiques de la lignée P 388. Le composé à tester est administré pendant 5 jours (Jl-J5). Le contrôle positif du test est le 5-fluorouracile qui est administré dans les mêmes conditions.
[…] Un composé est considéré comme étant actif lorsque le rapport T/C est supérieur à 127 %.

The subject of a further series is mélanome B 16. Briefly: B 16 melanoma test in vivo. Particulars: for Survivants: at day J 60. Further details: species or system souris hybrides BDF1; Jour médian de survie: unit not given here.
Text: as §3, §4, §5, §6, §7, §8
c) Test du mélanome B 16 (GERAN et al., Cancer Chemother, 1972, 2, 07-57).
Les essais sont effectués avec des souris hybrides BDF1 inoculées avec O,5 ml d'un homogénat de mélanome B 16 réalisé à partir de 1 g de tumeur dans 10 ml de sérum physiologique. Le composé à tester est administré pendant 9 jours (J1-J9). Le contrôle positif du test est le Cis- platine administré dans les mêmes conditions. Le nombre d'animaux survivants est évalué au jour J 60. Un composé est considéré comme étant actif lorsque le rapport T/C est supérieur ou égal à 125 %.

For another series, the system named is souris BDF1 saines. Briefly: in vivo. Particulars: mouse, ip, 200 mg/kg. As to the method: as §1, §2

Read-outs that look alike come from different tables or passages of the source.

`CCN(CC)CCCNc1ncc(C)c2[nH]c3ccncc3c12` [Dérivé N° 1, [(diéthylamino-3 propyl-1)amino]-1 méthyl-4 5-H pyrido[3',4':4,5]pyrrolo[3,2-c]pyridine]: the IC50 in series [1] (Mus musculus, L1210) turned out to be 0.34 µM. The same molecule registered a survival in the series “in vivo” of 100%. Further, the “Jour médian de survie” value in the series on leucémie P 388 (5 mg/kg i.p. J1-J5) was 14,1; in the series with leucémie P 388 (10 mg/kg i.p. J1-J5), 14,6; in the series with leucémie P 388 (20 mg/kg i.p. J1-J5), 15,9; in the series with leucémie P 388 (40 mg/kg i.p. J1-J5) it was 16,6; in the series on leucémie P 388 (50 mg/kg i.p. J1-J5), 3,1; with mélanome B 16 (5 mg/kg i.p. J1-J9) it was 28,25. Further, the “Jour médian de survie” value with mélanome B 16 (10 mg/kg i.p. J1-J9) is on record as 30,0; with mélanome B 16 (20 mg/kg i.p. J1-J9) it was 34,25. Also, the T/C % was found to be 132% in the series on leucémie P 388 (5 mg/kg i.p. J1-J5); 136% in the series with leucémie P 388 (10 mg/kg i.p. J1-J5); 148% in the series with leucémie P 388 (20 mg/kg i.p. J1-J5); 155% in the series with leucémie P 388 (40 mg/kg i.p. J1-J5); 26% in the series with leucémie P 388 (50 mg/kg i.p. J1-J5); 119% with mélanome B 16 (5 mg/kg i.p. J1-J9). Besides, the T/C % stood at 126% in the series with mélanome B 16 (10 mg/kg i.p. J1-J9) and 144% in the series with mélanome B 16 (20 mg/kg i.p. J1-J9). Also, the Survivants is reported as 0/10 in the series on leucémie P 388 (5 mg/kg i.p. J1-J5); 0/10 with leucémie P 388 (10 mg/kg i.p. J1-J5); 0/10 with leucémie P 388 (20 mg/kg i.p. J1-J5); 0/10 in the series with leucémie P 388 (40 mg/kg i.p. J1-J5); 0/10 with leucémie P 388 (50 mg/kg i.p. J1-J5); 0 in the series on mélanome B 16 (5 mg/kg i.p. J1-J9). In addition, the Survivants in the series with mélanome B 16 (10 mg/kg i.p. J1-J9) and with mélanome B 16 (20 mg/kg i.p. J1-J9) was 0 in each case.

For “diméthyl-4,5[(éthylamino-3 propyl-1)amino]-1 5-H pyrido[3',4':4,5]pyrrolo[3,2-c]pyridine [Dérivé N° 8]”, the IC50 in series [1] was found to be 3.8 µM. This molecule also gave a taux de survivants in the series on souris BDF1 saines of 100 p. 100. Further, the “Jour médian de survie” value is given as 13,4 with leucémie P 388 (5 mg/kg i.p. J1-J5); 14,62 with leucémie P 388 (10 mg/kg i.p. J1-J5); 16,75 with leucémie P 388 (20 mg/kg i.p. J1-J5); 16,0 in the series with leucémie P 388 (40 mg/kg i.p. J1-J5); 17,25 in the series on leucémie P 388 (80 mg/kg i.p. J1-J5). The T/C % is reported as 116% in the series with leucémie P 388 (5 mg/kg i.p. J1-J5); 127% in the series on leucémie P 388 (10 mg/kg i.p. J1-J5); 145% in the series with leucémie P 388 (20 mg/kg i.p. J1-J5); 138% with leucémie P 388 (40 mg/kg i.p. J1-J5); 149% with leucémie P 388 (80 mg/kg i.p. J1-J5). Moreover, the Survivants in the series on leucémie P 388 (5 mg/kg i.p. J1-J5), with leucémie P 388 (10 mg/kg i.p. J1-J5), with leucémie P 388 (20 mg/kg i.p. J1-J5), in the series with leucémie P 388 (40 mg/kg i.p. J1-J5) and in the series with leucémie P 388 (80 mg/kg i.p. J1-J5) was 0 each time.
